The values that follow come from PMC9465710, “Identification of a BAZ2A-Bromodomain Hit Compound by Fragment Growing” (ACS Medicinal Chemistry Letters, 2022).

Where only a bound is given, the exact number is not on record here.

This data set has as its target T1, BAZ2A bromodomain (Homo sapiens, UniProt Q9UIF9).
T1 construct: made in house
T1 sequence (Q9UIF9 1793-1897 limits assumed): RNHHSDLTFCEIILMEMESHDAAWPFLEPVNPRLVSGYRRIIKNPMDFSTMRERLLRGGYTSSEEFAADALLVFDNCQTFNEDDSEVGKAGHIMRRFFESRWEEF
Put plainly: AlphaScreen competition binding assay (BAZ2A bromodomain binding to acetylated peptide). Particulars: for IC50: AlphaScreen dose-response; for remaining binding at 500 µM: single dose, compound concentration 500 μM, read-out: % residual BAZ2A activity; for decrease of binding of BAZ2A bromodomain to the acetylated peptide: tested at 500 μM, single dose in duplicate. The method, then: The 36 selected molecules were tested by AlphaScreen at single doses in duplicate. Six molecules (compounds 8, 9, 11, 14, 18, and 25) decreased binding of BAZ2A bromodomain to the acetylated peptide by at least 50% when tested at 500 μM. […]
AlphaScreen assay was conducted as detailed in [11]. […]

Turning to `Cc1[nH]c(-c2csc(N3CCNCC3)n2)c2c1C(=O)CC(C)(C)C2` [Compound 81], the IC50 – broadly, the point on the concentration scale where inhibition reaches its midpoint – was 11.8 ± 0.3 µM.
Turning to `Cc1[nH]c(-c2csc(-c3cc[nH]n3)n2)c2c1C(=O)CCC2` [Compound 69], the IC50 was found to be 74.3 ± 4.7 µM.
Still for that read-out and setting: for `CCc1c(-c2csc(CN3CCOCC3)n2)[nH]c(C)c1C(C)=O` [Compound 59] the value was 74.2 ± 9.1 µM.
The same measure, in the same setting: to `CCc1c(-c2csc(N3CCNCC3C(=O)NCC(C)(C)C)n2)[nH]c(C)c1C(C)=O` (stereo not drawn) [Compound 113] belongs 14 ± 0.3 µM; to `CCc1c(-c2csc(C3(N)CCCC3)n2)[nH]c(C)c1C(C)=O` [Compound 66], 99.7 ± 10.9 µM; to `CCc1c(-c2csc(CN3CCN(C(C)=O)CC3)n2)[nH]c(C)c1C(C)=O` [Compound 64], 75.7 ± 9.2 µM.
Same read-out and setting: to `Cc1[nH]c(-c2csc(NC(=N)N)n2)c2c1C(=O)CCC2` [Compound 83] belongs 11 ± 0.2 µM; to `CCc1c(-c2csc(N3CCNCC3)n2)[nH]c(C)c1C(N)=O` [Compound 74], over 100 µM.
As for `CCc1c(-c2csc(N3CCNCC3)n2)[nH]c(C)c1C(C)=O` [Compound 47], the “ligand efficiency (LE)” value worked out at 0.29 kcal/mol per heavy atom, the “lipophilic ligand efficiency (LLE)” value was 1.9 and the IC50 came to 33.3 ± 0.4 µM.
`CC(=O)c1c(C)[nH]c(-c2csc(N3CCNCC3)n2)c1CCC(C)C` [Compound 79] gave an IC50 of 12.5 ± 0.4 µM.
Same read-out and setting: to `CCc1c(-c2csc(C3CCNCC3)n2)[nH]c(C)c1C(C)=O` [Compound 48] belongs 94.6 ± 11.7 µM; to `CCc1c(-c2csc(N3CCNCC3C(=O)NC(CO)CO)n2)[nH]c(C)c1C(C)=O` (stereo not drawn) [Compound 112], 42 ± 5.2 µM.
The same measure, in the same setting: to `CCc1c(-c2csc(N3CCNCC3C(=O)NCC(C)(C)CC)n2)[nH]c(C)c1C(C)=O` (stereo not drawn) [Compound 108] belongs 35.1 ± 0.2 µM; to `CCc1c(-c2csc(N3CCN(Cc4cn(CC(N)=O)nn4)CC3)n2)[nH]c(C)c1C(C)=O` [Compound 88], 42.9 ± 4.6 µM.
Still for that read-out and setting: for `CCc1c(-c2csc(CCNC)n2)[nH]c(C)c1C(C)=O` [Compound 45] the value was 109 ± 12.3 µM.
Regarding `CCc1c(-c2csc(C3CCCCN3)n2)[nH]c(C)c1C(C)=O` (stereo not drawn) [Compound 50], the IC50 was 76.8 ± 6.4 µM.
The same measure, in the same setting: to `CCc1c(-c2csc(C3CCCNC3)n2)[nH]c(C)c1C(C)=O` (stereo not drawn) [Compound 49] belongs 47 ± 5 µM.
On to `CCc1c(-c2csc(-c3cnc[nH]3)n2)[nH]c(C)c1C(C)=O` [Compound 72], for which the half-maximal inhibitory concentration (IC50) stood at 54.6 ± 7.1 µM.
Turning to `CCc1c(-c2csc(C3(NC(C)=O)CCNC3)n2)[nH]c(C)c1C(C)=O` (stereo not drawn) [Compound 54], the half-inhibitory concentration (IC50) was found to be 61.3 ± 10.6 µM.
`CCc1c(-c2csc(C3COCCN3)n2)[nH]c(C)c1C(C)=O` (stereo not drawn) [Compound 52] registered an IC50 of 93.5 ± 9.7 µM.
On the same count and under the same terms, to `CC(=O)c1c(C)[nH]c(-c2csc(CN3C(=O)CNC3=O)n2)c1C` [Compound 65] belongs 54 ± 0.3 µM.
Take `CC(=O)N1CCN(c2ccc(NC(=N)N)cc2)CC1` [Compound 18]: the IC50 is over 200 µM, the remaining binding at 500 µM was 37 ± 4% and the “decrease of binding of BAZ2A bromodomain to the acetylated peptide” value is “at least 50%”.
Regarding `CCc1c(-c2csc(N3CCNCC3C(=O)NC3(Cc4ccccc4Br)CC3)n2)[nH]c(C)c1C(C)=O` (stereo not drawn) [Compound 102], the half-maximal inhibitory concentration (IC50) was determined as 10.6 ± 0.2 µM.
For the compound `CCc1c(-c2csc(N=C(N)N)n2)[nH]c(C)c1C(C)=O` [Compound 25], the “ligand efficiency (LE)” value was 0.31 kcal/mol per heavy atom, the “lipophilic ligand efficiency (LLE)” value is listed as 2.4, the IC50 turned out to be 33.2 ± 0.3 µM and the remaining binding at 500 µM was found to be 5 ± 0.6%. The “decrease of binding of BAZ2A bromodomain to the acetylated peptide” value is “at least 50%”.
In turn, `Cc1[nH]c(-c2csc(N3CCNCC3)n2)c2c1C(=O)CCC2(C)C` [Compound 82] gave an IC50 of 44.6 ± 5.6 µM.
The same measure, in the same setting: for `CCc1c(-c2csc(Cc3ccc(N)cc3)n2)[nH]c(C)c1C(C)=O` [Compound 60] the value was over 100 µM; for `CCc1c(-c2csc(CN3CCC(N)CC3)n2)[nH]c(C)c1C(C)=O` [Compound 63], 60.5 ± 9.4 µM; for `CCc1c(-c2csc(C3CCCN3C(N)=O)n2)[nH]c(C)c1C(C)=O` (stereo not drawn) [Compound 58], over 100 µM.
